Literature values in paper PMC7904743, “WIDOCK: a reactive docking protocol for virtual screening of covalent inhibitors” (Journal of Computer-Aided Molecular Design, 2021).
Read-outs that look alike come from different tables or passages of the source.

Tests used:
NUDT7 = details: protein labeling at 200 μM; experimental actives if % labeling higher than 50%; cited from earlier work
OTUB2 = OTUB2 protein labeling; experimental actives if % labeling higher than 50%; cited from earlier work
[1] = thiol reactivity, cited from earlier work
[2] = natural log of average kinetic rate constant
[3] = natural log of average rate constant

Structure (SMILES) | NUDT7 % labeling (NUDT7) [%] | OTUB2 % labeling (OTUB2) [%] | ln(avg k) [1, 2] | ln(avg k) [1, 3]
O=C(CCl)N1CCN(S(=O)(=O)c2ccccc2Cl)CC1 [PCM-0102837, O=C(CCl)N1CCN(S(=O)(=O)c2ccccc2Cl)CC1] | 18 | 0 | -15.224 | -15.224
CC(=O)c1sc(NC(=O)CCl)nc1C [PCM-0102838, CC(=O)c1sc(NC(=O)CCl)nc1C] | 12 | 0 | -16.064 | -16.064
COC(=O)C1Cc2ccccc2CN1C(=O)CCl (centres unmarked) [PCM-0102841, COC(=O)C1Cc2ccccc2CN1C(=O)CCl] | 19 | 41 | -14.128 | -14.128
O=C(CCl)Nc1ccc([N+](=O)[O-])cc1Br [PCM-0102848, O=C(CCl)Nc1ccc([N+](=O)[O-])cc1Br] | 24 | 0 | -16.062 | -16.062
CC(C)(C)CCNC(=O)CCl [PCM-0102853, CC(C)(C)CCNC(=O)CCl] | 0 | 0 | -17.028 | -17.028
N#CC1(NC(=O)CCl)CCC1 [PCM-0102854, N#CC1(NC(=O)CCl)CCC1] | 9 | 0 | -16.080 | -16.080
CC(C)(C)C(=O)NNC(=O)CCl [PCM-0102855, CC(C)(C)C(=O)NNC(=O)CCl] | 7 | 0 | -17.593 | -17.593
N#Cc1cccc(C(=O)NNC(=O)CCl)c1 [PCM-0102857, N#Cc1cccc(C(=O)NNC(=O)CCl)c1] | 0 | 41 | -16.900 | -16.900
Cc1ccc(S(C)(=O)=O)cc1NC(=O)CCl [PCM-0102858, Cc1ccc(S(C)(=O)=O)cc1NC(=O)CCl] | 0 | 0 | -16.253 | -16.253
CCOC(=O)N1CCN(C(=O)CCl)CC1 [PCM-0102861, CCOC(=O)N1CCN(C(=O)CCl)CC1] | 0 | 0 | -17.162 | -17.162
O=C(CCl)NC1CCCC(C(F)(F)F)C1 (centres unmarked) [PCM-0102862, O=C(CCl)NC1CCCC(C(F)(F)F)C1] | 0 | 14 | -16.578 | -16.578
CN(Cc1ccsc1)C(=O)CCl [PCM-0102865, CN(Cc1ccsc1)C(=O)CCl] | 9 | 0 | -16.224 | -16.224
O=C(CCl)Nc1ccc2[nH]c(=O)[nH]c2c1 [PCM-0102866, O=C(CCl)Nc1ccc2[nH]c(=O)[nH]c2c1] | 0 | 30 | -15.702 | -15.702
CC1CCCN(C(=O)CCl)C1 (centres unmarked) [PCM-0102867, CC1CCCN(C(=O)CCl)C1] | 0 | 0 | -16.989 | -16.989
O=C(CCl)N(c1ccc(F)cc1)C1C=CS(=O)(=O)C1 (centres unmarked) [PCM-0102868, O=C(CCl)N(c1ccc(F)cc1)C1C=CS(=O)(=O)C1] | 34 | 0 | -15.576 | -15.576
CN(C(=O)CCl)C1=CCCC1 [PCM-0102869, CN(C(=O)CCl)C1=CCCC1] | 0 | 0 | -17.213 | -17.213
O=C(CCl)N1CCOCC1C1CC1 (centres unmarked) [PCM-0102870, O=C(CCl)N1CCOCC1C1CC1] | 17 | 0 | -15.541 | -15.541
O=C(CCl)NC1CCOc2ccccc21 (centres unmarked) [PCM-0102871, O=C(CCl)NC1CCOc2ccccc21] | 0 | 44 | -16.366 | -16.366

Structure (SMILES) | NUDT7 % labeling (NUDT7) [%] | OTUB2 % labeling (OTUB2) [%] | ln(avg k) [1, 2] | ln(avg k) [1, 3]
Cc1csc(NC(=O)CCl)n1 [PCM-0102872, Cc1csc(NC(=O)CCl)n1] | 16 | 0 | -15.785 | -15.785
O=C(CCl)Nc1cc(F)cc(F)c1 [PCM-0102874, O=C(CCl)Nc1cc(F)cc(F)c1] | 18 | 0 | -15.799 | -15.799
N#Cc1ccc(NC(=O)CCl)cc1 [PCM-0102875, N#Cc1ccc(NC(=O)CCl)cc1] | 14 | 8 | -15.678 | -15.678
Cc1ccccc1CN1CCN(C(=O)CCl)CC1 [PCM-0102876, Cc1ccccc1CN1CCN(C(=O)CCl)CC1] | 0 | 0 | -15.594 | -15.594
CN(C)C(=O)c1ccc(NC(=O)CCl)cc1 [PCM-0102877, CN(C)C(=O)c1ccc(NC(=O)CCl)cc1] | 0 | 0 | -15.682 | -15.682
Cc1cc(C)c(C(C)NC(=O)CCl)cc1C (centres unmarked) [PCM-0102879, Cc1cc(C)c(C(C)NC(=O)CCl)cc1C] | 0 | 17 | -16.314 | -16.314
COC(=O)C1CN(C(=O)CCl)c2ccccc2O1 (centres unmarked) [PCM-0102880, COC(=O)C1CN(C(=O)CCl)c2ccccc2O1] | 0 | 11 | -17.563 | -17.563
O=C(CCl)NCC1COc2ccccc2O1 (centres unmarked) [PCM-0102881, O=C(CCl)NCC1COc2ccccc2O1] | 0 | 39 | -16.328 | -16.328
C=CC(=O)NC(=O)Nc1ccccc1 [PCM-0102883, C=CC(=O)NC(=O)Nc1ccccc1] | 0 | 0 | -16.619 | -16.619
O=C(CCl)NNC(=O)c1ccc([N+](=O)[O-])cc1 [PCM-0102885, O=C(CCl)NNC(=O)c1ccc([N+](=O)[O-])cc1] | 0 | 21 | -16.970 | -16.970
Cc1ccccc1NC(=O)CCl [PCM-0102887, Cc1ccccc1NC(=O)CCl] | 0 | 0 | -16.445 | -16.445
O=C(CCl)N1CCN(c2cnccn2)CC1 [PCM-0102889, O=C(CCl)N1CCN(c2cnccn2)CC1] | 0 | 0 | -15.833 | -15.833
O=C(CCl)Nc1ccc(Cl)nc1 [PCM-0102891, O=C(CCl)Nc1ccc(Cl)nc1] | 25 | 0 | -15.610 | -15.610
CC(=O)Nc1ccc(NC(=O)CCl)c(C(F)(F)F)c1 [PCM-0102895, CC(=O)Nc1ccc(NC(=O)CCl)c(C(F)(F)F)c1] | 0 | 0 | -16.611 | -16.611
O=C(CCl)NCC1CCS(=O)(=O)C1 (centres unmarked) [PCM-0102896, O=C(CCl)NCC1CCS(=O)(=O)C1] | 0 | 23 | -16.032 | -16.032
CN(Cc1cc(C#N)ccc1F)C(=O)CCl [PCM-0102897, CN(Cc1cc(C#N)ccc1F)C(=O)CCl] | 7 | 0 | -15.579 | -15.579
CN(Cc1ccc(Cl)s1)C(=O)CCl [PCM-0102898, CN(Cc1ccc(Cl)s1)C(=O)CCl] | 29 | 0 | -15.575 | -15.575
